Experimental data reported in US20250144030A1, “OSMOTIC PUMP CONTROLLED-RELEASE TABLET OF INSOLUBLE DRUG AND PREPARATION METHOD THEREFOR” (BEIJING WEHAND-BIO PHARMACEUTICAL CO., LTD, priority 2021, published 2025).
Counter-ions that a name gives are not always drawn. Like-named read-outs stand apart in the source and are kept apart here.

Experiment: Determination of solubility of Nic drug and solid dispersions
Type: physicochemical
Conditions: for solubility at 2 h: 37 °C, thermodynamic from solid
Method: After the drug was dissolved, an equivalent dose of the solid dispersion powder was further added, and oscillated for 2 h. The above operations were repeated until an insoluble solid occurred in the solution.

Solubility of Saturated Citric Acid Solution mg/ml (37° C.) (saturated citric acid solution, hydrochloride) [mg/mL] | Solubility in Water mg/ml (37° C.) (water, hydrochloride) [mg/mL] | solubility at 2 h (saturated citric acid solution, aqueous buffer, saturated citric acid solution, read-out: Solubility of Saturated Citric Acid Solution mg/ml (37° C.)) [mg/mL] | solubility at 2 h (water, water, water, read-out: Solubility in Water mg/ml (37° C.)) [mg/mL] | SMILES
50 | 11 | – | – | COC(=O)C1=C(C)NC(C)=C(C(=O)OCCN(C)Cc2ccccc2)C1c1cccc([N+](=O)[O-])c1 (stereo not drawn) [β-Form Nic, nicardipine hydrochloride]
– | – | 46 | 7.2 | COC(=O)C1=C(C)NC(C)=C(C(=O)OCCN(C)Cc2ccccc2)C1c1cccc([N+](=O)[O-])c1 (stereo not drawn) [α-Form Nic, nicardipine hydrochloride]
